# Results reported in US9309286B2, “Compositions and methods for augmenting permeability barriers” (TUFTS MEDICAL CENTER, priority 2011, dated 2016).
# Peptide text beside a SMILES is read from it.
# Assays:
# [1] = system: rats
# [2] = system: rats; assay: Evans Blue leak into lungs of rats after p38 inhibitor; details: 1 μmol/kg
Compound,"Lung weight/body weight, peptide alone [1]",Leak of intravenously injected Evans Blue into lungs [2]
C[C@H](NC(=O)[C@H](C)NC(=O)[C@@H]1CCCN1C(=O)[C@H](C)NC(=O)CNC(=O)[C@H](CCCNC(=N)N)NC(=O)[C@H](CCCNC(=N)N)NC(=O)[C@@H](NC(=O)CNC(=O)[C@@H]1CCCN1C(=O)[C@@H](NC(=O)[C@H](CCCNC(=N)N)NC(=O)[C@H](CCCNC(=N)N)NC(=O)[C@H](C)NC(=O)[C@@H]1CCCN1C(=O)[C@H](CC(N)=O)NC(=O)[C@H](CCCNC(=N)N)NC(=O)[C@@H]1CCCN1C(=O)[C@H](Cc1c[nH]cn1)NC(=O)[C@H](C)NC(=O)[C@H](CCCNC(=N)N)NC(=O)[C@H](C)NC(=O)[C@H](CCC(N)=O)NC(=O)[C@H](CCCNC(=N)N)NC(=O)[C@H](C)NC(=O)[C@H](C)NC(=O)[C@H](C)NC(=O)[C@H](CCCNC(=N)N)NC(=O)[C@H](C)NC(=O)[C@@H](N)Cc1ccc(O)cc1)[C@@H](C)O)[C@@H](C)O)C(N)=O [MK2-activating peptide] (H-YARAAARQARAHPRNPARRTPGTRRGAPAA-NH2),no significant effect,–
C[S+]([O-])c1ccc(-c2nc(-c3ccncc3)c(-c3ccc(F)cc3)[nH]2)cc1 (centres unmarked) [SB203580],–,increase in leak
